One assay relates to NHLF cells. The assay can be described thus: q-RT-PCR gene expression in TGF-β1 stimulated NHLF cells. It counts as cell-based, human. The procedure: (§1) LL29 cells (lung fibroblasts from IPF patient) were purchased from ATCC and cultured in Ham's F-12K medium supplemented with 15% FBS. Primary lung fibroblasts cells, NHLF and DHLF-IPF cells were purchased from LONZA and cultured in FGF-2 medium with FGF, Insulin and FBS. All the cells were maintained in a humidified atmosphere of 95% air with 5% CO2 at 37° C.
(§2) Cells were pre-treated with HDAC-inhibitors (COMPOUND-109, COMPOUND-108 and COMPOUND-107) for 2 hours in serum free media and then human recombinant TGF-β (R&D Systems, Minneapolis, MN) was added at a concentration of 5 ng/mL and cultured for 72 hours for all the experiments.
(§3) RNA isolation was carried out using Trizol as described^12,13. RNA was isolated using Trizol-chloroform method and total RNA was quantified using nano-drop, 1 μg of RNA was used for cDNA synthesis using primescript cDNA synthesis kit (Takara bio) according to manufacturer's instructions. Primers for EMT (Fibronectin1 (FN1), Vimentin, α-SMA and Snail) markers, ECM markers (Timp1, Timp3 and LoxL2), Collagen markers (Collagen 1α1 (Col1) and Collagen 3α1[…] and housekeeping markers (β2M and β-actin) were designed using Primer 3 software and all primer sequences were listed in Table 1. Real time quantitative PCR (qRT-PCR) was carried out using SYBR green master mix and the differences in mRNA expression of all the gene levels were calculated as the fold change using the formula 2-ΔΔct. In all Q-RT-PCR data plots, vehicle control fold change was normalized to 1.

The subject of assay [1] is BLM-induced pulmonary fibrosis. The assay can be described thus: Bleomycin (BLM) induced pulmonary fibrosis model. Type of assay: in vivo, Wistar rats. To be noted: for ALP levels / LDH levels: BALF, oral, daily for 14 days; for BLM induced thickened alveolar walls, inflammatory cells infiltration, deposition of collagen fibers (histopathology): H&E (Fibrosis score) and Masson's staining (Ashcroft score), compared BLM alone group; for BLM-induced inflammation, fibrotic marker expression and pathological changes in lung tissues: collective in-vivo conclusion. The procedure:
as §3
Adult female Wistar rats (180-200 g, n=50) at the age of 8-10 weeks were used to develop bleomycin induced pulmonary fibrosis model. All animals were kept under constant environmental and nutritional conditions throughout the experimental period. The research protocol complies with the ethical guidelines of experimental research; “Institutional Animal Ethics Committee” (CPSCEA Registration No. 97/GO/RBi/S/1999/CPCSEA and study approval No. IICT/056/2019), CSIR-IICT, Hyderabad.
Except 8 animals (Sham control), pulmonary fibrosis was induced in remaining all animals (32 Wistar rats) by intratracheal instillation of BLM (5 mg/kg) as sulfate salt dissolved in 1 mL of normal saline. Rats were anesthetized using ketamine and xylazine (80 mg/kg and 15 mg/kg respectively as per body weight, I.P.). BLM was administered intratracheally into the lungs of the rats.
Pulmonary fibrosis was induced by a single intratracheal instillation of BLM (5 mg/kg) to the set of animals (n=40) excluding sham control animals (n=8)^14. BLM was dissolved in saline to attain the concentration of 5 mg/ml. Animals were anesthetized with ketamine (80 mg/kg) and xylazine (10 mg/kg). BLM was administered intratracheal (5 mg/kg) to the anesthetized Wistar rats and saline was administered intratracheally in to sham control animals. […] Further, these animals were randomized into four groups (as described in Table-2) apart from sham control (8 rats/group).
As described in the grouping pattern Table 2 and 3, animals were grouped and administered the compounds orally in the form of gum-acacia suspension (0.25%) daily for 14 days. Sham control (without bleomycin) animals were used as a control for bleomycin control (disease control) and administered everyday 0.5 mL of saline for 14 days orally. After the treatment period, BALF fluid was collected from 4 animals in each group and lungs were collected from another 4 animals for ex-vivo experiments and histopathological observations.
(§4) In 4 animals from each group, the thoracic cavity was opened and the tracheas were exposed, cannulated and 3 mL sterile 0.9% saline was slowly infused into the lungs. BALF was centrifuged at 2000 rpm, 4 ° C. for 10 min using cooling centrifuge. The sedimented cell pellets were pooled and re-suspended in 500 μl of sterile saline to quantify inflammatory cell counts; supernatant BLAF was examined for ALP and LDH parameters using auto-analyzer.
Collagen deposition was determined by measuring the total hydroxyproline content in wet lung tissue, which was measured by a hydroxyproline assay kit (abcam), according to the manufacturer's protocol. In brief, lungs were homogenized in sterile distilled water, alkalized using 10N NaOH and heated at 120° C. for 1 hour. Following alkaline hydrolysis samples were neutralized using 10N concentrated HCL. Then samples were into 96 well plate along with standards and kept for evaporation at 65° C. Then samples were oxidized by adding oxidation mixture followed by addition of developer and incubated at 37° C. for 5 min. […]

In assay [2] the test system is NHLF, DHLF and LL29 cells. As to the kind of experiment: q-RT-PCR gene expression in TGF-β1 stimulated cells, statements not split by cell line. To be noted: for HDAC-8 levels (gene expression): TGF-β1 stimulated, other concentrations. Type of assay: cell-based, human. The procedure: as §1, §2, §3
Another assay deals with LL29 cells. As to the kind of experiment: q-RT-PCR gene expression in TGF-β1 stimulated LL29 cells. It counts as cell-based, human. The procedure:
as §1, §2, §3

The test system of another assay is LPS induced ARDS. The assay can be described thus: LPS induced ARDS model. It counts as in vivo, SD rats. The procedure:
as §3
Treatment group animals were treated with HDACi (COMPOUND-108) for 7 days at the doses of (1.5 mg/kg and 3 mg/kg), after the treatment period animals were subjected to ARDS instillation by intratracheally. Rats were anesthetized using ketamine and xylazine (80 mg/kg and 20 mg/kg, respectively as per body weight, I.P.). Except 8 animals (Sham control), ARDS was induced in remaining all animals (24 SD rats) by intratracheal instillation of Lipopolysachharide (5 mg/kg) dissolved in normal saline.
as §4
A portion of the pulmonary lobe was harvested, rinsed with ice-cold phosphate buffer saline, and fixed with 10% neutral-buffered formalin, embedded in paraffin wax, sectioned (6 μm) and stained with H&E and Masson's trichrome. Three serial slices of 3 μm thickness each 50 μm apart of both lung lobes were stained with Masson's Trichrome. The slides were analyzed with a microscope in a random order using an (10×) objective. The severity of fibrosis and alveolitis in lung tissues (using H&E and Masson's trichrome staining) was semi-quantitatively assessed by a pathologist in a blinded fashion via Ashcroft scoring system^15. The structural alterations of tissue were assessed based on the degree haemorrhage, emphysema, alveolar wall thickening, inflammatory lesions and collagen deposition or fibrosis^16.

This note sets out measurements from patent US12629351B2, “HDAC inhibitors for idiopathic pulmonary fibrosis and other lung inflammatory disorders” (COUNCIL OF SCIENTIFIC AND INDUSTRIAL RESEARCH (AN INDIAN …, priority 2020, dated 2026).

Structures are written as SMILES.

For the compound `CCOc1ccc(-c2cn(C)c3ccc(NS(=O)(=O)c4ccc(C(=O)NO)cc4)cc23)cn1` [COMPOUND-109, 4-(N-(3-(6-ethoxypyridin-3-yl)-1-methyl-1H-indol-5-yl)sulfamoyl)-N-hydroxy benzamide], in the assay on NHLF cells, the vimentin levels entry was “not modulated” and the α-SMA levels entry was “highly reduced”. Further, in assay [1], the ALP levels entry is on record as “reduced in dose dependently”; the LDH levels entry is recorded as “reduced in dose dependently”; the “BLM induced thickened alveolar walls, inflammatory cells infiltration, deposition of collagen fibers (histopathology)” value is listed as “reduced”; the “BLM-induced inflammation, fibrotic marker expression and pathological changes in lung tissues” value was “could effectively protect”. The “HDAC-8 levels (gene expression)” value in assay [2] is recorded as “did not modulate”. For the same compound, the “HDAC-6 mRNA levels” value in assay [2] (summary of Example 2) is listed as “could inhibit only HDAC-6 mRNA levels”. Moreover, in the assay on LL29 cells, the vimentin levels entry was “not modulated” and the α-SMA levels result is recorded as “highly reduced”.

As for `Cn1cc(-c2cc(O)cc(F)c2)c2cc(NS(=O)(=O)c3ccc(C(=O)NO)cc3)ccc21` [COMPOUND-107, 4-(N-(3-(3-fluoro-5-hydroxyphenyl)-1-methyl-1H-indol-5-yl)sulfamoyl)-N-hydroxyl benzamide], in the assay with NHLF cells, the vimentin levels result was “highly reduced” and the α-SMA levels entry was “highly reduced”. Besides, in assay [2], the “HDAC-8 levels (gene expression)” value was “did not modulate”. In addition, in assay [2] (summary of Example 2), the “HDAC-6 mRNA levels” value is reported as “could inhibit only HDAC-6 mRNA levels”. In addition, in the assay with LL29 cells, the vimentin levels entry is recorded as “highly reduced” and the α-SMA levels result is “highly reduced”. The Snail levels result with LL29 cells (10 and 20 μM) is “highly down-regulated”.

As to `Cn1cc(-c2cccc(Cl)c2)c2cc(NS(=O)(=O)c3ccc(C(=O)NO)cc3)ccc21` [COMPOUND-108, 4-(N-(3-(3-chlorophenyl)-1-methyl-1H-indol-5-yl)sulfamoyl)-N-hydroxybenzamide], in the assay with NHLF cells, the vimentin levels result is recorded as “highly reduced” and the α-SMA levels entry is “highly reduced”. Besides, the “HDAC-8 levels (gene expression)” value in the assay on NHLF cells (2.5 μM) was “reduced”. In assay [1], the ALP levels entry is listed as “reduced in dose dependently”; the LDH levels result is on record as “reduced in dose dependently”; the “BLM induced thickened alveolar walls, inflammatory cells infiltration, deposition of collagen fibers (histopathology)” value is listed as “reduced”; the “BLM-induced inflammation, fibrotic marker expression and pathological changes in lung tissues” value was “could effectively protect”. Further, in assay [1] (statement in embodiment), the “fibrotic alterations in BLM challenged rat lung tissues” value is “most effectively ameliorated”. In assay [2], the “HDAC-8 levels (gene expression)” value is “did not modulate”. Also, in assay [2] (summary of Example 2), the “HDAC-6 mRNA levels” value was “potentially inhibits” and the “HDAC-8 mRNA levels” value is listed as “potentially inhibits”. For the same compound, in the assay on LL29 cells, the vimentin levels result is “highly reduced” and the α-SMA levels result was “highly reduced”. For the same compound, the “HDAC-8 levels (gene expression)” value in the assay with LL29 cells (2.5 μM) was “reduced”. The Snail levels result in the assay with LL29 cells (5 and 10 μM) was “highly down-regulated”. Besides, the “lung injury and infiltration of inflammatory cells (histopathology)” value in the assay on LPS induced ARDS (1.5 mg/kg) is given as “significant (p<0.01) reduction”. In addition, in the assay with LPS induced ARDS (3 mg/kg), the “LPS induced Neutrophil count in blood” value was “significantly attenuated”; the “lung injury and infiltration of inflammatory cells (histopathology)” value was “significant (p<0.01) reduction”. The “plasma IL-6 Levels” value with LPS induced ARDS (3 mg/kg, at both the time points) is recorded as “reduced”. Also, in the assay on LPS induced ARDS (BALF), the “LPS induced infiltration of Neutrophils” value was “significantly attenuated” and the “LPS induced infiltration of WBC” value is on record as “significantly attenuated”. Further, the “LPS induced expression of inflammatory markers (IL-6, IL-1β, CCl2, Cox-2, CXCL-6, CCL-7, CXCL-1, CXCL-10)” value in the assay on LPS induced ARDS (lung tissues, mRNA, dose dependent manner) was “significantly attenuated”. Also, the “LPS induced inflammatory marker's expression (CXCL-11, TLR-3 and INF-γ)” value in the assay on LPS induced ARDS (lung tissues, mRNA, in dose dependent manner) is “significantly attenuated”. In the assay with LPS induced ARDS (pre-treatment at 1.5 and 3 mg/kg doses), the “pathological consequences (LPS induced), H&E” value is reported as “remarkably repressed”. Besides, in the assay with LPS induced ARDS (rat, in vivo), the “LPS induced Lung volume (index)” value is “significantly attenuated” and the “LPS induced spleen Indices” value is “significantly attenuated”. In addition, the lung pathological conditions result with LPS induced ARDS (statement in embodiment) was “most effectively ameliorated”.
